Test results: patent publication US12162890B2 (Novartis AG, priority 2015, dated 2024)

Target: HEK293 cells with stable expression of the GRIN1 gene and tetracycline-inducible expression of the GRIN2B gene (NMDA receptor, NR2B) (Homo sapiens, UniProt Q13224)
Experiment: Fluo-8 Ca2+ flux assay: reversal of Ro 25-6981-mediated suppression of the Ca2+ response to co-agonist (glutamate/glycine); further: test concentration or dose not given here
Assay type: cell-based
Details: reversal of the Ro 25-6981 suppression of the Ca2+ response to co-agonist (glutamate/glycine)

Sequence of HEK293 cells with stable expression of the GRIN1 gene and tetracycline-inducible expression of the GRIN2B gene (NMDA receptor, NR2B) (Q13224 27-1484, other chains not shown): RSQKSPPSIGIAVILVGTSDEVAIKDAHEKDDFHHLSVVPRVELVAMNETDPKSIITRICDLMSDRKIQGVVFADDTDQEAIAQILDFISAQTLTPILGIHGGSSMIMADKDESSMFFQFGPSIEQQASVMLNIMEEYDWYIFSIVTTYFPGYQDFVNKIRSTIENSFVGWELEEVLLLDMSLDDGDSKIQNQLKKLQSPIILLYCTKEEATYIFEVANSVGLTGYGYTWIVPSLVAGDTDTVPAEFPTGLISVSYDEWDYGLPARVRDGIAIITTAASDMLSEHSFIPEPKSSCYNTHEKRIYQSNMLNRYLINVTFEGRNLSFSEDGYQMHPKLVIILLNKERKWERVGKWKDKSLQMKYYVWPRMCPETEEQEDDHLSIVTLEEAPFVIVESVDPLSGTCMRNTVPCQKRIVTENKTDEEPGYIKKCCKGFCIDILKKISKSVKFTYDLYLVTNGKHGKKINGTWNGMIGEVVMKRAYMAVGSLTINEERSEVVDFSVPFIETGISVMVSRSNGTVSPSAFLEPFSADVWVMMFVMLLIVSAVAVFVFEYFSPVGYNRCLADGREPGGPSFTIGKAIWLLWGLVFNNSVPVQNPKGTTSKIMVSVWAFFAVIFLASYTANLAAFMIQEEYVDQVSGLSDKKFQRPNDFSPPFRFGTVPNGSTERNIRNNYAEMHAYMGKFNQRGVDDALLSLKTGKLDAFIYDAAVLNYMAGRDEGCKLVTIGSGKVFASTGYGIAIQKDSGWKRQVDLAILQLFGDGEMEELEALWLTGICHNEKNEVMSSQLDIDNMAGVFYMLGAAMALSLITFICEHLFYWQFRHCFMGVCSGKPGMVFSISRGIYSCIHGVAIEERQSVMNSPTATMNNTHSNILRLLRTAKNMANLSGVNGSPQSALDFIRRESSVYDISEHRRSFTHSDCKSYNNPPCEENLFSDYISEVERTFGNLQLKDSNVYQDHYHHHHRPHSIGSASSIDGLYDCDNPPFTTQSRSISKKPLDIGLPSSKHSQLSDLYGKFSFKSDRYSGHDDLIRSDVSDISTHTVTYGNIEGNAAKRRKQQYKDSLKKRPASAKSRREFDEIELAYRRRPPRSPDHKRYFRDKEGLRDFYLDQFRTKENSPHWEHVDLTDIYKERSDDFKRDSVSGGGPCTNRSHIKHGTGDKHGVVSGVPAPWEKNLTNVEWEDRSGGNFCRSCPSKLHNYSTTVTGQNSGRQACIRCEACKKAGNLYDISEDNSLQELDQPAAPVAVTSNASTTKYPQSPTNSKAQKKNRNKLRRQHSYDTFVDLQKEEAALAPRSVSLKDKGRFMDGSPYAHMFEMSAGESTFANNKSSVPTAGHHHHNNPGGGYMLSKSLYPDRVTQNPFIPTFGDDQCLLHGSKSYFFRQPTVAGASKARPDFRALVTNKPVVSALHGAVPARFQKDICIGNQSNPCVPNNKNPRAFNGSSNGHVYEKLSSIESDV

Q: For `O=C(Cn1ccc2scc(-c3ccc(F)c(Cl)c3)c2c1=O)NCC(F)(F)F` [Example 56, 2-(3-(3-chloro-4-fluorophenyl)-4-oxothieno[3,2-c]pyridin-5(4H)-yl)-N-(2,2,2-trifluoroethyl)aceta-mide], which “Response Recovered (%)” value is on record?
A: 7.3%

Q: `Cn1cc(-c2ccc(Cl)c(Cl)c2)c2c(=O)n(CC(=O)N3CCC(F)C3)ccc21` (stereo not drawn) [Example 250, 3-(3,4-dichlorophenyl)-5-(2-(3-fluoropyrrolidin-1-yl)-2-oxoethyl)-1-methyl-1H-pyrrolo[3,2-c]pyridin-4(5H)-one] was tested. Which “Response Recovered (%)” value did it give?
A: 62%

Q: Which “Response Recovered (%)” value does the source give for `O=C(Cn1ccc2scc(-c3ccc(Cl)c(Cl)c3)c2c1=O)N1CC(F)(c2ccccc2)C1` [Example 53, 3-(3,4-dichlorophenyl)-5-(2-(3-fluoro-3-phenylazetidin-1-yl)-2-oxoethyl)thieno[3,2-c]pyridin-4(5H)-one] here?
A: 24%

Q: With `O=C(Cn1ccc2scc(-c3ccc(F)c(Cl)c3)c2c1=O)N1CC(F)C1` [Example 47, 3-(3-chloro-4-fluorophenyl)-5-(2-(3-fluoroazetidin-1-yl)-2-oxoethyl)thieno[3,2-c]pyridin-4(5H)-one] as the compound, how does the “Response Recovered (%)” value read?
A: 23%

Q: `O=C(Cn1cc(Br)c2scc(-c3ccc(Cl)c(C(F)(F)F)c3)c2c1=O)N1CCCC1` [Example 98, 7-bromo-3-(4-chloro-3-(trifluoromethyl)phenyl)-5-(2-oxo-2-(pyrrolidin-1-yl)ethyl)thieno[3,2-c]pyridin-4(5H)-one] was tested. Which “Response Recovered (%)” value did it give?
A: 40%

Q: How did the “Response Recovered (%)” value turn out when `Cn1cnc(-n2cc(-c3ccc(F)c(Cl)c3)c3c(=O)n(CC(=O)N4CC(C)(F)C4)ccc32)n1` [Example 269, 3-(3-chloro-4-fluorophenyl)-5-(2-(3-fluoro-3-methylazetidin-1-yl)-2-oxoethyl)-1-(1-methyl-1H-1,2,4-triazol-3-yl)-1H-pyrrolo[3,2-c]pyridin-4(5H)-one] was run?
A: 130%

Q: For `O=C(Cn1ncc2scc(-c3ccc(F)c(Cl)c3)c2c1=O)N1CC(F)(F)C1` [Example 341, 3-(3-chloro-4-fluorophenyl)-5-(2-(3,3-difluoroazetidin-1-yl)-2-oxoethyl)thieno[2,3-d]pyridazin-4(5H)-one], which “Response Recovered (%)” value is on record?
A: 8%

Q: With `O=C(Cn1cnc2cccc(-c3ccc(Cl)cc3)c2c1=O)N1CC(F)(F)C1` [Example 296, 5-(4-chlorophenyl)-3-(2-(3,3-difluoroazetidin-1-yl)-2-oxoethyl)quinazolin-4(3H)-one] as the compound, how does the “Response Recovered (%)” value read?
A: 9%

Q: Which “Response Recovered (%)” value does the source give for `Cc1cn(CC(=O)N2CCC(F)C2)c(=O)n2c(-c3ccc(F)c(Cl)c3)cnc12` (stereo not drawn) [Example 452, 3-(3-chloro-4-fluorophenyl)-6-(2-(3-fluoropyrrolidin-1-yl)-2-oxoethyl)-8 methylimidazo[1,2-c]pyrimidin-5(6H)-one] here?
A: 7.5%

Q: How did the “Response Recovered (%)” value turn out when `CCC1(F)CN(C(=O)Cn2cc(C)n3ccc(-c4ccc(F)c(Cl)c4)c3c2=O)C1` [Example 418, 8-(3-chloro-4-fluorophenyl)-2-(2-(3-ethyl-3-fluoroazetidin-1-yl)-2-oxoethyl)-4-methylpyrrolo[1,2-a]pyrazin-1(2H)-one] was run?
A: 74%

Q: `O=C(Cn1ccc2scc(-c3ccc(F)c(Cl)c3)c2c1=O)N1CC(F)(c2ccccc2)C1` [Example 57, 3-(3-chloro-4-fluorophenyl)-5-(2-(3-fluoro-3-phenylazetidin-1-yl)-2-oxoethyl)thieno[3,2-c]pyridin-4(5H)-one] was tested. Which “Response Recovered (%)” value did it give?
A: 15%

Q: With `CC1CN(C(=O)Cn2ccc3scc(-c4ccc(F)c(C(F)(F)F)c4)c3c2=O)C1` [Example 60, 3-(4-fluoro-3-(trifluoromethyl)phen-yl)-5-(2-(3-methylazetidin-1-yl)-2-oxoethyl)thieno[3,2-c]pyridin-4(5H)-one] as the compound, how does the “Response Recovered (%)” value read?
A: 76%

Q: With `O=C(Cn1ccc2scc(-c3ccc(F)c(C(F)(F)F)c3)c2c1=O)N1CC[C@@H](F)C1` [Example 27, (R)-3-(4-fluoro-3-(trifluoromethyl)phen-yl)-5-(2-(3-fluoropyrrolidin-1-yl)-2-oxoethyl)thieno[3,2-c]pyridin-4(5H)-one] as the compound, how does the “Response Recovered (%)” value read?
A: 81%

Q: For `O=C(Cn1cnc2csc(-c3ccc(Cl)cc3)c2c1=O)N1CCOCC1` [Example 354, 5-(4-chlorophenyl)-3-(2-morpholino-2-oxoethyl)thieno[3,4-d]pyrimidin-4(3H)-one], which “Response Recovered (%)” value is on record?
A: 1%

Q: For `CC1(N)CN(C(=O)Cn2ccc3scc(-c4ccc(Cl)c(Cl)c4)c3c2=O)C1` [Example 94, 5-(2-(3-amino-3-methylazetidin-1-yl)-2-oxoethyl)-3-(3,4-dichlorophenyl)thieno[3,2-c]pyridin-4(5H)-one], which “Response Recovered (%)” value is on record?
A: 3.1%

Q: With `CCOCc1cn(CC(=O)N2CCC(F)C2)c(=O)c2c(-c3ccc(F)c(Cl)c3)csc12` (stereo not drawn) [Example 130, 3-(3-chloro-4-fluorophenyl)-7-(ethoxymethyl)-5-(2-(3-fluoropyrrolidin-1-yl)-2-oxoethyl)thieno[3,2-c]pyridin-4(5H)-one] as the compound, how does the “Response Recovered (%)” value read?
A: 42%

Q: For `CCn1cc(-c2ccc(Cl)c(C(F)(F)F)c2)c2c(=O)n(CC(=O)N3CCCC3)cnc21` [Example 157, 5-(4-chloro-3-(trifluoromethyl)phenyl)-7-ethyl-3-(2-oxo-2-(pyrrolidin-1-yl)ethyl)-3H-pyrrolo[2,3-d]pyrimidin-4(7H)-one], which “Response Recovered (%)” value is on record?
A: 70%

Q: Which “Response Recovered (%)” value does the source give for `O=C(Cn1ccc2[nH]cc(-c3ccc(Cl)c(F)c3)c2c1=O)N1CCC(F)C1` (stereo not drawn) [Example 204, 3-(4-chloro-3-fluorophenyl)-5-(2-(3-fluoropyrrolidin-1-yl)-2-oxoethyl)-1H-pyrrolo[3,2-c]pyridin-4(5H)-one] here?
A: 47%

Q: For `CC1(F)CN(C(=O)Cn2ccc3scc(-c4ccc(Cl)c(Cl)c4)c3c2=O)C1` [Example 42, 3-(3,4-dichlorophenyl)-5-(2-(3-fluoro-3-methylazetidin-1-yl)-2-oxoethyl)thieno[3,2-c]pyridin-4(5H)-one], which “Response Recovered (%)” value is on record?
A: 150%

Q: With `O=C(Cn1cnc2[nH]nc(-c3ccc(Cl)c(C(F)(F)F)c3)c2c1=O)N1CC(F)(F)C1` [Example 320, 3-(4-Chloro-3-trifluoromethyl-phenyl)-5-[2-(3,3-difluoro-azetidin-1-yl)-2-oxo-ethyl]-1,5-dihydro-pyrazolo[3,4-d]pyrimidin-4-one] as the compound, how does the “Response Recovered (%)” value read?
A: 9%

Q: `Cc1cn(CC(=O)N2CC(C)(F)C2)c(=O)c2c(-c3cnc(Cl)c(Cl)c3)ccn12` [Example 420, 8-(5,6-dichloropyridin-3-yl)-2-(2-(3-fluoro-3-methylazetidin-1-yl)-2-oxoethyl)-4-methylpyrrolo[1,2-a]pyrazin-1(2H)-one] was tested. Which “Response Recovered (%)” value did it give?
A: 69%

Q: With `O=C(Cn1cnc2c(c(-c3ccc(F)c(C(F)(F)F)c3)cn2CCO)c1=O)N1CCC(F)C1` (stereo not drawn) [Example 196, 5-(4-fluoro-3-(trifluoromethyl)phenyl)-3-(2-(3-fluoropyrrolidin-1-yl)-2-oxoethyl)-7-(2-hydroxyethyl)-3H-pyrrolo[2,3-d]pyrimidin-4(7H)-one] as the compound, how does the “Response Recovered (%)” value read?
A: 34%

Q: For `O=C(Cn1cnc2c(c(-c3ccc(Cl)c(C(F)(F)F)c3)cn2CCF)c1=O)N1CCCC1` [Example 149, 5-(4-chloro-3-(trifluoromethyl)phenyl)-7-(2-fluoroethyl)-3-(2-oxo-2-(pyrrolidin-1-yl)ethyl)-3H-pyrrolo[2,3-d]pyrimidin-4(7H)-one], which “Response Recovered (%)” value is on record?
A: 64%

Q: `O=C(Cn1cnc2csc(-c3ccc(Cl)cc3)c2c1=O)N1CCCC1` [Example 345, 5-(4-chlorophenyl)-3-(2-oxo-2-(pyrrolidin-1-yl)ethyl)thieno[3,4-d]pyrimidin-4(3H)-one] was tested. Which “Response Recovered (%)” value did it give?
A: 18%

Q: With `Cc1ncc(-c2csc3ccn(CC(=O)N4CC(F)(CF)C4)c(=O)c23)cc1Cl` [Example 92, 3-(5-chloro-6-methylpyridin-3-yl)-5-(2-(3-fluoro-3-(fluoromethyl)azetidin-1-yl)-2-oxoethyl)thieno[3,2-c]pyridin-4(5H)-one] as the compound, how does the “Response Recovered (%)” value read?
A: 70%

Q: `CCn1cc(-c2ccc(Cl)c(Cl)c2)c2c(=O)n(CC(=O)N3CCC(F)C3)ccc21` (stereo not drawn) [Example 272, 3-(3,4-dichlorophenyl)-1-ethyl-5-(2-(3-fluoropyrrolidin-1-yl)-2-oxoethyl)-1H-pyrrolo[3,2-c]pyridin-4(5H)-one] was tested. Which “Response Recovered (%)” value did it give?
A: 33%

Q: `O=C(Cn1ccc2scc(-c3ccc(Cl)c(Cl)c3)c2c1=O)N1CCC(F)C1` (stereo not drawn) [Example 10, 3-(3,4-dichlorophenyl)-5-(2-(3-fluoropyrrolidin-1-yl)-2-oxoethyl)thieno[3,2-c]pyridin-4(5H)-one] was tested. Which “Response Recovered (%)” value did it give?
A: 102%

Q: Which “Response Recovered (%)” value does the source give for `O=C(Cn1ccc2scc(-c3ccc(F)c(C(F)(F)F)c3)c2c1=O)N1CCC(F)C1` (stereo not drawn) [Example 11, 3-(4-fluoro-3-(trifluoromethyl)phenyl)-5-(2-(3-fluoropyrrolidin-1-yl)-2-oxoethyl)thieno[3,2-c]pyridin-4(5H)-one] here?
A: 99%

Q: Which “Response Recovered (%)” value does the source give for `O=C(Cn1ccc2scc(-c3ccc(F)c(C(F)(F)F)c3)c2c1=O)N1C[C@@H](F)[C@@H](F)C1` [Example 28, 5-(2-((3S,4R)-3,4-difluoropyrrolidin-1-yl)-2-oxoethyl)-3-(4-fluoro-3-(trifluoromethyl)phen-nyl)thieno[3,2-c]pyridin-4(5H)-one] here?
A: 94%

Q: For `O=C(Cn1ccc2cccc(-c3ccc(F)c(Cl)c3)c2c1=O)N1CC(F)(F)C1` [Example 309, 8-(3-chloro-4-fluorophenyl)-2-(2-(3,3-difluoroazetidin-1-yl)-2-oxoethyl)isoquinolin-1(2H)-one], which “Response Recovered (%)” value is on record?
A: 41%

Q: Which “Response Recovered (%)” value does the source give for `O=C(Cn1cnc2[nH]cc(-c3ccc(Cl)c(C(F)(F)F)c3)c2c1=O)N1CCCC1` [Example 148, 5-(4-chloro-3-(trifluoromethyl)phenyl)-3-(2-oxo-2-(pyrrolidin-1-yl)ethyl)-3H-pyrrolo[2,3-d]pyrimidin-4(7H)-one] here?
A: 66%

Q: For `O=C(Cn1cnc2csc(-c3ccc(F)c(Cl)c3)c2c1=O)N1CCCC1` [Example 359, 5-(3-chloro-4-fluorophenyl)-3-(2-oxo-2-(pyrrolidin-1-yl)ethyl)thieno[3,4-d]pyrimidin-4(3H)-one], which “Response Recovered (%)” value is on record?
A: 35%

Q: How did the “Response Recovered (%)” value turn out when `Cn1cc(-c2ccc(F)c(Cl)c2)c2c(=O)n(CC(=O)N3CC(F)(F)C3)cnc21` [Example 162, 5-(3-chloro-4-fluorophenyl)-3-(2-(3,3-difluoroazetidin-1-yl)-2-oxoethyl)-7-methyl-3H-pyrrolo[2,3-d]pyrimidin-4(7H)-one] was run?
A: 40%
